Patent publication US10092633B2, “Newly identified peptides for use in the induction of oral tolerance in young mammals” (NESTEC S.A., priority 2013, dated 2018)

Assays:
[1] = test system: BLG-specific IgE antibodies; assay: experimental mouse model of sensitization to BLG: gavage, then i.p. sensitization, BLG-specific IgE in serum; assay type: in vivo, BALB/cJ mice; conditions: gavage days 1, 2, 3, 8, 9 and 10 (0.22 μmole); i.p. native BLG on alum day 14; serum days 30-33; FIG. 1
Procedure: Mice were fed either native BLG or either synthetic peptide (84-106) or (25-107) by gavage on day 1, 2, 3, 8, 9 and 10. They were then sensitized by i.p. administration with native BLG on day 14. Serum IgE levels were measured between day 30 and 33.
Specific pathogen-free (SPF) BALB/cJ mice (3 to 4 weeks-old females, Centre d'Elevage René Janvier, Le Genest Saint-Isle, France) were housed in filtered cages under normal SPF husbandry conditions (autoclaved bedding and sterile water) and were acclimatized for two weeks before experiments. They were maintained on a diet deprived of animal protein, and in which BLG was not detected using specific sandwich immunoassays. All animal experiments were performed according to European Community rules of animal care, and with authorization 91-368 of the French Veterinary Services. […]
Groups of 6 or 7 mice were administered either 4 mg of native bovine BLG, or equivalent quantity (i.e. 0.22 μmole) of isolated synthetic BLG peptides. […]
The efficacy of mice sensitization was assessed by quantitative measurements of BLG-specific IgE antibodies on individual serum samples collected from the mice retro-orbital venous plexus under light anaesthesia (Isoflurane, Baxter) between days 30-33. Non-specific binding was determined using individual sera from 10 naive mice, and was deduced from the absorbance values measured with immune sera. […]

HLA-DR = assay: peptides bound to HLA-DR on cells cultured with NAN-HA/BEBA-HA formula, isolated by immunoprecipitation and identified by LC-MS/MS; assay type: binding, human; conditions: U937 and Thp1 cells incubated 24 hours with BEBA-HA; immunoprecipitation with clone L243; nano-LC-MSMS
Procedure: In a set of experiments detailed in Example 1, the present inventors identified the peptide sequences of BLG responsible for the induction of oral tolerance towards milk proteins, in particular BLG. In a first step, using a cellular based assay, partially hydrolyzed infant formula NAN HA™ (otherwise known as BEBE HA™) from Nestlé, was incubated with human cells expressing the Major Histocompatibility Complex (MHC) class II receptor, HLA-DR. As the first step in the induction of oral tolerance, the HLA receptor presents peptide sequences to the T cells, thereby inducing tolerance. Thus, development of tolerance is largely dependent on the recognition of the peptide sequence by the MHC.
Thus, in the current invention, the human cells expressing HLA-DR were cultured in the presence of NAN-HA™ formula (which had been verified to be non-toxic for the cells), the peptides that bound to the HLA receptor were isolated by immunoprecipitation, and then identified by mass spectrometry and amino acid sequencing.
The Thp1 and U937 cells were incubated in 20 mL RPMI-1640 medium with L-Glutamine (Sigma) supplemented with 10% heat-inactivated FCS (Amimed, Bioconcept) and Penicillin/Streptomycin (Sigma) at a concentration of 1×10^6 cells/mL in a T175 cm^2 (Falcon) with respectively 1 ug/mL and 100 ug/mL of BEBA-HA (Nestlé, Lot# L02680742AP) for a 24 hours period at 37° C. in presence of 5% CO2. Cells were spun down and harvested to perform immunoprecipitation of MHC-peptide complexes.
Briefly, for each condition tested (control without BEBA-HA, sample with BEBA-HA for both cell lines), 2×10^7 cells were resuspended in ice cold TBS and washed three times. […]
Before MS analysis, HLA-DR peptides were desalted using either reversed-phase C18 (The Nest group, USA) or mixed-mode OASIS (Waters, USA) desalting columns as described in the manufacturer's manual. After desalting, peptides were analyzed by nano-LC-MSMS using an in-house Magic C18 column (150×0.075 mm) for peptide separation (2-35% Acetontril/0.1% formaic acid in 30 minutes) coupled to an Orbitrap XL instrument. […]

[2] = test system: oral tolerance to β-lactoglobulin; conditions: previously identified as part of a longer peptide sequence in the earlier filing; cited from earlier work

Row | Substance | BLG-specific serum IgE level / tolerance induction compared to control (PBS) [1] | recognition by and binding to HLA-DR (identified among HLA-DR bound peptides) (HLA-DR) | induction of oral tolerance [2]
1 | peptide (84-106): synthetic peptide corresponding to the bovine BLG sequence numbers 84-106 (MW 2731 Da) (IDALNENKVLVLDTDYKKYLLFC; UniProt P02754 100-122, looked up, fragment) | tendency towards a lower level of IgE | – | –
2 | VLDTDY (SAEPEQ; UniProt P02754 126-131, looked up, fragment) [peptide b, previously known tolerogenic BLG peptide, position 110-115, positive control] | – | identified by this method | inducers of oral tolerance
3 | EVDDEALEK [peptide c, previously known tolerogenic BLG peptide, position 143-151, positive control] | – | identified by this method | inducers of oral tolerance
4 | IDALNENK [peptide a, previously known tolerogenic BLG peptide, position 100-107, positive control] | – | identified by this method | inducers of oral tolerance
